Like-named read-outs stand apart in the source and are kept apart here.
Assays:
[1] = tested on: SARS-CoV-2 (hCoV-19/Egypt/NRC-03/2020); conditions: Vero-E6; cited from earlier work
[2] = tested on: MCF7 (breast) cancer cell line; assay: MTT antiproliferation, MCF7; assay type: cell-based, human; conditions: for IC50: Homo sapiens, MCF7, 72 h, read-out: IC50 (µM) ± SEM MCF7; for SI (selectivity index) MCF7: IC50 of RPE1/IC50 of cancer cell line
Protocol: (§1) Antiproliferation properties of the targeted agents were investigated by the standard MTT technique against diverse human cancer cell lines [MCF7 (breast), HCT116 (colon), A431 (skin squamous) and PaCa2 (pancreatic)][67] (Table 1, Supplementary Figs. S48‒S51).
(§2) Cells were seeded at concentration of 30000 cells per well in fresh complete growth medium in 96-well tissue culture microtiter plates for 24 h. […] 0.5% DMSO was used as negative control. Triplicate wells were prepared for each individual dose. After 72 h of incubation, medium was aspirated, 40 μl MTT salt (2.5 mg ml^-1) was added to each well and incubated for further 4 h at 37 °C. To stop the reaction and dissolve the formed crystals, 150 μl of 10% sodium dodecyl sulfate (SDS) in deionized water was added to each well and incubated overnight at 37 °C.
(§3) Data were collected as mean values for experiments performed in triplicates for each individual dose which had been measured by MTT assay. […] The cell surviving fraction was calculated according to the following equation.
(§4) Surviving fraction = OpticaldensityO.D.oftreatedcellsO.D.ofcontrolcells
(§5) Statistical calculations for determination of the mean and standard error mean values were determined by SPSS 16 software.

[3] = tested on: HCT116 (colon) cancer cell line; assay: MTT antiproliferation, HCT116; assay type: cell-based, human; conditions: for IC50: Homo sapiens, HCT-116, 72 h, read-out: IC50 (µM) ± SEM HCT116; for SI (selectivity index) HCT116: IC50 of RPE1/IC50 of cancer cell line
Protocol: as §1, §2, §3, §4, §5

[4] = tested on: A431 (skin squamous) cancer cell line; assay: MTT antiproliferation, A431; assay type: cell-based, human; conditions: for IC50: Homo sapiens; for SI (selectivity index) A431: IC50 of RPE1/IC50 of cancer cell line
Protocol: as §1, §2, §3, §4, §5

[5] = tested on: PaCa2 (pancreatic) cancer cell line; assay: MTT antiproliferation, PaCa-2; assay type: cell-based, human; conditions: for IC50: Homo sapiens, PaCa-2, 72 h, read-out: IC50 (µM) ± SEM PaCa-2; for SI (selectivity index) PaCa-2: IC50 of RPE1/IC50 of cancer cell line
Protocol: as §1
Cells were suspended in DMEM medium for MCF7, A431, PaCa-2 and McCoy’s 5A for HCT116 in addition to 1% antibiotic–antimycotic mixture (10000 μg ml^-1 potassium penicillin, 10000 μg ml^-1 streptomycin sulfate and 25 μg ml^-1 amphotericin B), 10% fetal bovine serum and 1% L-glutamine at 37 °C, under 5% CO2 and 95% humidity. Cells were seeded at concentration of 30000 cells per well in fresh complete growth medium in 96-well tissue culture microtiter plates for 24 h. Media was aspirated, fresh complete medium was added and cells were incubated with different concentrations of the tested compound to give a final concentration of [50, 25, 12.5 and 6.25 μM “in addition to 3.125, 1.56 and 0.78 μM in case of high potent analogues”). 0.5% DMSO was used as negative control. Triplicate wells were prepared for each individual dose. After 72 h of incubation, medium was aspirated, 40 μl MTT salt (2.5 mg ml^-1) was added to each well and incubated for further 4 h at 37 °C. To stop the reaction and dissolve the formed crystals, 150 μl of 10% sodium dodecyl sulfate (SDS) in deionized water was added to each well and incubated overnight at 37 °C. The absorbance was then measured at 570 nm and a reference wavelength of 595 nm.
as §3, §4
(§6) Statistical calculations for determination of the mean and standard error mean values were determined by SPSS 16 software. The observed anti-proliferative properties are presented in Table 1 (Supplementary Figs. S48‒S52).

[6] = tested on: RPE1 (normal human immortalized retinal pigment epithelial cell line); assay: MTT toxicity towards normal cells, RPE1; assay type: cell-based; conditions: RPE-1, read-out: IC50 (µM) ± SEM RPE1
Protocol: The safety of the synthesized agents against non-cancer/normal RPE1 (retinal pigment epithelium) cell line was assessed (Table 1, Supplementary Fig. S52). The SI (selectivity index) for the tested compounds against RPE1 cell line confirms the safety towards non-cancer cells. […] Compound 6d and 6h which are also of high anti-PaCa2 show remarkable SI values (SI = > 3.8, > 3.6, respectively).
The agents synthesized were also tested against RPE1 (normal human immortalized retinal pigment epithelial cell line) cell (in DMEM-F12 medium) to determine the toxicity/selectivity towards normal cells relative to the cancer cell lines utilized.
as §6

EGFR = target: T1, EGFR (Homo sapiens, UniProt P00533); assay type: cell-based; conditions: western blot, MCF7, compound at its MTT IC50; for EGFR RQ (relative quantification): control RQ 3.4461
T1 construct: Western blot technique was considered for EGFR and VEGFR-2 properties determination; endogenous in cells; host or cells: MCF7 (breast cancer cell line)
T1 sequence (P00533 25-1210): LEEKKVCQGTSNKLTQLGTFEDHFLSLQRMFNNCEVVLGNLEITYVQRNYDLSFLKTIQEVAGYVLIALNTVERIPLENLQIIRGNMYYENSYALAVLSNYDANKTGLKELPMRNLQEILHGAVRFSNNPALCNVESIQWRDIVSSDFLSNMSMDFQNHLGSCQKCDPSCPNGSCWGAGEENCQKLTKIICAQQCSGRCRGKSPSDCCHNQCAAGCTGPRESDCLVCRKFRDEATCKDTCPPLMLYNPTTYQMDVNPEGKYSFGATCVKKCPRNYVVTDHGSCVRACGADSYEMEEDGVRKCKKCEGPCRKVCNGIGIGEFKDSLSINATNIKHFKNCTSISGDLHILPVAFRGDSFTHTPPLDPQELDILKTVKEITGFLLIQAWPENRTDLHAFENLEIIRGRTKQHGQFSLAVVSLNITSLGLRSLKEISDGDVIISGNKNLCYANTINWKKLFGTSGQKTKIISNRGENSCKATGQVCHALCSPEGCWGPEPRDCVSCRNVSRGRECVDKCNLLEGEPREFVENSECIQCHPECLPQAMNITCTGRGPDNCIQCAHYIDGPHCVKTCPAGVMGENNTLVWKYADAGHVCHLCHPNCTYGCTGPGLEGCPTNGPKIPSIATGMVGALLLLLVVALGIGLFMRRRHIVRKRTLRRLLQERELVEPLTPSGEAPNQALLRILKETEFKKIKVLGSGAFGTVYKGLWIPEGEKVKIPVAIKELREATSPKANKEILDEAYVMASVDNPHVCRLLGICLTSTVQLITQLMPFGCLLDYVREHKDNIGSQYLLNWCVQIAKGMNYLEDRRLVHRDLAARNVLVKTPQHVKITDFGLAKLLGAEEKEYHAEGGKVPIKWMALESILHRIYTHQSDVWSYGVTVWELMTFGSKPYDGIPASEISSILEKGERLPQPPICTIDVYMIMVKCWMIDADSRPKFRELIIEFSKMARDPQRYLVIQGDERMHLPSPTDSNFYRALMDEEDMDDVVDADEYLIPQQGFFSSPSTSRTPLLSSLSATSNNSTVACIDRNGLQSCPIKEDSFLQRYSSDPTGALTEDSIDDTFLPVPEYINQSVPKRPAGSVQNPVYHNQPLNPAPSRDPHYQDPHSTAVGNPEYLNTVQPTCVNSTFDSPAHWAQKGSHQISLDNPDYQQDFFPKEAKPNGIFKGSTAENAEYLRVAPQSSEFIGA
Excerpt: (§7) The western blot technique was applied utilizing the IC50 observed for each respective agent synthesized during MTT assay[85],[86]. Consideration of multi-targeted inhibitory properties investigation is based in the fact that cancer initiation and proliferation sometimes utilizes many receptors or signaling pathways.
(§8) Western blot technique was considered for EGFR and VEGFR-2 properties determination utilizing the IC50 observed of each respective agent synthesized during MTT assay against MCF7 (breast) cancer cell line. All the studies were conducted according to the manufacturer’s instruction.^10,^11

VEGFR-2 = target: T2, VEGFR-2 (Homo sapiens, UniProt P35968); assay type: cell-based; conditions: western blot, MCF7, compound at its MTT IC50; for VEGFR-2 RQ (relative quantification): control RQ 3.2634
T2 construct: Western blot technique was considered for EGFR and VEGFR-2 properties determination; endogenous in cells; host or cells: MCF7 (breast cancer cell line)
T2 sequence (P35968 20-1356): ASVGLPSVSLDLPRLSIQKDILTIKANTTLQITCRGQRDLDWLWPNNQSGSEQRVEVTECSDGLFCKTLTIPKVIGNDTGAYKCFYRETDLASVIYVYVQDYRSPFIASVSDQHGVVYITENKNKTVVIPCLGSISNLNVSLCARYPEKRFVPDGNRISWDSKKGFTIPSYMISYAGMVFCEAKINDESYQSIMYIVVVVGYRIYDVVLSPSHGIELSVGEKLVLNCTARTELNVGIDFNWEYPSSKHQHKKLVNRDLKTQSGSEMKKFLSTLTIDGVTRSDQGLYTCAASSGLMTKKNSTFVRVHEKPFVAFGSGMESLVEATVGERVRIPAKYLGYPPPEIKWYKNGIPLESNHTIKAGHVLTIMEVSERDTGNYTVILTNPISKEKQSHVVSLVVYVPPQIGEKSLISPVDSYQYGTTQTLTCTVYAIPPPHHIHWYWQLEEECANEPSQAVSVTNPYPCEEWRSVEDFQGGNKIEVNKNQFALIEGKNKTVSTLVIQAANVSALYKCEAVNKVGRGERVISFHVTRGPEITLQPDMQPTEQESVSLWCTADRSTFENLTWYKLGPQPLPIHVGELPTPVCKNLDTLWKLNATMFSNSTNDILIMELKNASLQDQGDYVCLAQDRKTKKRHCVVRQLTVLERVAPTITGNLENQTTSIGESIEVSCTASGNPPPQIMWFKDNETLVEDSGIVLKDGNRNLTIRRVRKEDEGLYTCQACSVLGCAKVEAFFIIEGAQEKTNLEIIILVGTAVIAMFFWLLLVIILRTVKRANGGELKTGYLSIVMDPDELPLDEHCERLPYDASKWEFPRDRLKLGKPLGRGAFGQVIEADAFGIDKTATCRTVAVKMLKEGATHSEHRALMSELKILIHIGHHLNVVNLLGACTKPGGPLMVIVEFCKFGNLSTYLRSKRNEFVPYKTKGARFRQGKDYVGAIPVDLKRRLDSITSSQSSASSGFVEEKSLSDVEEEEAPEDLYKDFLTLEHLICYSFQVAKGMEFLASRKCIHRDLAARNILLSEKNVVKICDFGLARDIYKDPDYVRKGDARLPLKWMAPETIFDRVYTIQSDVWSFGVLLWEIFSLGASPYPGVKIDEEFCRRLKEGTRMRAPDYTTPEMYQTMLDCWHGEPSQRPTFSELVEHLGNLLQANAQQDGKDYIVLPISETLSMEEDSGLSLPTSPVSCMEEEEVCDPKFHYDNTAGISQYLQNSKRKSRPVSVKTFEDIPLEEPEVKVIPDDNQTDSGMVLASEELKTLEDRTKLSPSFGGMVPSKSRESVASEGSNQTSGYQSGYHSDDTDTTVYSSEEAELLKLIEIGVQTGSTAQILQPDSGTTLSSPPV
Excerpt: as §7, §8

[7] = tested on: SARS-CoV-2 (hCoV-19/Egypt/NRC-03/2020); assay: Vero-E6 cell viral infection model, anti-SARS-CoV-2 IC50 (CPE, crystal violet); assay type: cell-based; conditions: for IC50: Severe acute respiratory syndrome coronavirus 2, Vero C1008; for SI = CC50/IC50: Vero-E6, SARS-CoV-2
[8] = MTT cytotoxicity assay (CC50); assay type: cell-based; conditions: African green monkey, VERO-E6 cells
Protocol: The cytotoxic activity of the compounds was tested in VERO-E6 cells by using the 3-(4,5-dimethylthiazol-2-yl)-2,5-diphenyltetrazolium bromide (MTT) method with minor modifications. Briefly, the cells were seeded in 96 well-plates […] at a density of 3 x 10^5 cell/ml and incubated for 24 h at 37 °C in 5% CO2. After 24 h, cells were treated with various concentrated of the tested compounds in triplicates. 24 h later, the supernatant was discarded and cell monolayers were washed with sterile 1x phosphate buffer saline (PBS) 3 times and MTT solution (20 µl of 5 mg/ml) was added to each well and incubated at 37 °C for 4 h followed by medium aspiration. In each well, the formed formazan crystals were dissolved with 200 µl of acidified isopropanol (0.04 M HCl in absolute isopropanol = 0.073 ml HCl in 50 ml isopropanol). Eventually, the absorbance was measured at λmax 570 nm using the Anthos Zenyth 200rt plate reader (Anthos Labtec Instruments, Heerhugowaard, Netherlands). The cytotoxicity of various concentrations compared to the untreated cells was determined using nonlinear regression analysis by plotting log inhibitor versus normalized response.^12^-14

AChE = AChE (Homo sapiens, UniProt P22303); assay: AChE inhibition (DTNB, acetylthiocholine); assay type: biochemical; conditions: for IC50: read-out: AChE (IC50, μM) ± SD
AChE, sequence (P22303 32-614): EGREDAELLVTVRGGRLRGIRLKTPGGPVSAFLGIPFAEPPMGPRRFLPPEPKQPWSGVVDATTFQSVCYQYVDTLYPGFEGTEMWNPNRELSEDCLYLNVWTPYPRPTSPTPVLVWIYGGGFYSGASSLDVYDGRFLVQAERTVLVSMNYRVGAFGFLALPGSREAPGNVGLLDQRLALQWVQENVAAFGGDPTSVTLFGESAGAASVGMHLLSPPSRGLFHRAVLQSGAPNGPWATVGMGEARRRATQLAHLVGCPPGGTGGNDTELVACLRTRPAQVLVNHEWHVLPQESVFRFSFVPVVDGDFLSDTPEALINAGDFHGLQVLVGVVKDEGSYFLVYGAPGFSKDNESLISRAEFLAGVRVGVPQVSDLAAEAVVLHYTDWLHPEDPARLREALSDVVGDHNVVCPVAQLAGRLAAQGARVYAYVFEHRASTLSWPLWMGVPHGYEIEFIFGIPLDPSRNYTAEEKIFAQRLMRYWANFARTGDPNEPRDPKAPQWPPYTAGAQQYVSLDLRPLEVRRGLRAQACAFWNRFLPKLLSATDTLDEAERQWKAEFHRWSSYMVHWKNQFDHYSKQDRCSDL
Protocol: All compounds were dissolved in MeOH.

BChE = BChE (Homo sapiens, UniProt P06276); assay: BChE inhibition (DTNB, butyrylthiocholine iodide)
BChE, sequence (P06276 29-602, species assumed): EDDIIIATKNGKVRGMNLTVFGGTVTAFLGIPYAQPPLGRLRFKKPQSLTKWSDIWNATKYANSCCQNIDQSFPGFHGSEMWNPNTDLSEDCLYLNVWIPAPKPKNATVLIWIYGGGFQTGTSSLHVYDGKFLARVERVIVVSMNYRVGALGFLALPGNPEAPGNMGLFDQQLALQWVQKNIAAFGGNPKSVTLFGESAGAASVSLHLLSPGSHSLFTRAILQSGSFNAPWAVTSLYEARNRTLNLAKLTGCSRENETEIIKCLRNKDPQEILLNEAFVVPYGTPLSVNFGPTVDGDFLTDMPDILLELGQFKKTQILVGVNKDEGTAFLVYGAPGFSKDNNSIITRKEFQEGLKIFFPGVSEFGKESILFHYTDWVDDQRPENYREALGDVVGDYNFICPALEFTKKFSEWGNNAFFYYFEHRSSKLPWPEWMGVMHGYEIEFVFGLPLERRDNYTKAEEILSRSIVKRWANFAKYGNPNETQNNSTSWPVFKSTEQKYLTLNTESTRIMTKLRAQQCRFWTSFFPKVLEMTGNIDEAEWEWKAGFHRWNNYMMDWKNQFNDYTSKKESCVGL

VERO-E6 cells = conditions: cited from earlier work
[9] = A-431, 72 h, read-out: IC50 (µM) ± SEM A431
[10] = A-431, read-out: Observed log(IC50, μM) (A431) (converted)
[11] = Vero-E6, 72 h, reduction of virus-induced CPE, read-out: IC50 (µM) SARS-CoV-2
[12] = log of observed IC50 in μM, read-out: Observed log(IC50, μM) (SARS-CoV-2) (converted)

In the case of `CCN(CC)CCCC(C)Nc1ccnc2cc(Cl)ccc12` (stereo not drawn) [Chloroquine], the IC50 [1] is given as 25 µM.
For `CCS(=O)(=O)N1C/C(=C\c2ccc(Cl)cc2)C(=O)C2(C1)C(c1ccc(Cl)cc1)CN(C)C21C(=O)Nc2ccccc21` (stereo not drawn) [Compound 6k, (E)-5″-(4-Chlorobenzylidene)-4′-(4-chlorophenyl)-1″-(ethylsulfonyl)-1′-methyldispiro[indoline-3,2′-pyrrolidine-3′,3″-piperidine]-2,4″-dione], the IC50 [2] was 4.38 ± 0.26 µM, the “SI (selectivity index) MCF7” value [2] was 3.4 and the IC50 [3] was 4.17 ± 0.38 µM. For the same molecule, the “SI (selectivity index) HCT116” value [3] was 3.5, the IC50 [4, 9] was 2.97 ± 0.29 µM and the IC50 [4, 10] was 2.97 µM. For the same molecule, the “SI (selectivity index) A431” value [4] was 5.0, the IC50 [5] was 8.83 ± 0.7 µM and the “SI (selectivity index) PaCa-2” value [5] was 1.7. For the same molecule, the IC50 [6] was 14.8 ± 0.99 µM, the “EGFR % Inhibition” value (EGFR) was 66.2% and the “EGFR RQ (relative quantification)” value (EGFR) was 1.163. The “VEGFR-2 % Inhibition” value (VEGFR-2) was 66.2%, the “VEGFR-2 RQ (relative quantification)” value (VEGFR-2) was 1.105 and the IC50 [7, 11] was 8.43 µM. The IC50 [7, 12] was 8.43 µM, the “SI = CC50/IC50” value [7] was 6.6 and the CC50 at 24 h [8] was 55.5 µM. For the same molecule, the “SI = IC50 (AChE)/IC50 (BChE)” value (AChE) was 1.6, the IC50 (AChE) was 32.3 ± 4.78 µM and the IC50 (BChE) was 19.6 ± 2.1 µM.
With `COc1ccc(/C=C2\CN(S(C)(=O)=O)CC3(C2=O)C(c2ccc(OC)c(OC)c2)CN(C)C32C(=O)Nc3ccccc32)cc1OC` (stereo not drawn) [Compound 6n, (E)-5″-(3,4-Dimethoxybenzylidene)-4′-(3,4-dimethoxyphenyl)-1′-methyl-1″-(methylsulfonyl)dispiro[indoline-3,2′-pyrrolidine-3′,3″-piperidine]-2,4″-dione] the IC50 [2] was 40.2 ± 1.1 µM, the “SI (selectivity index) MCF7” value [2] was greater than 1.2 and the IC50 [3] was 15.4 ± 0.52 µM. The “SI (selectivity index) HCT116” value [3] was greater than 3.2, the IC50 [4, 9] was 34.9 ± 1.36 µM and the IC50 [4, 10] was 34.9 µM. The “SI (selectivity index) A431” value [4] was greater than 1.4, the IC50 [5] was 32.8 ± 1.21 µM and the “SI (selectivity index) PaCa-2” value [5] was greater than 1.5. The IC50 [6] was greater than 50 µM, the “EGFR % Inhibition” value (EGFR) was 69.6% and the “EGFR RQ (relative quantification)” value (EGFR) was 1.047. For the same molecule, the “VEGFR-2 % Inhibition” value (VEGFR-2) was 64.2%, the “VEGFR-2 RQ (relative quantification)” value (VEGFR-2) was 1.167 and the IC50 [7, 11] was 35.9 µM. The IC50 [7, 12] was 35.9 µM, the “SI = CC50/IC50” value [7] was 17.3 and the CC50 at 24 h [8] was 621 µM. The “SI = IC50 (AChE)/IC50 (BChE)” value (AChE) was 0.9, the IC50 (AChE) was 5.4 ± 0.94 µM and the IC50 (BChE) was 6.33 ± 0.85 µM.
In the case of `COc1ccc(/C=C2\CN(S(C)(=O)=O)CC3(C2=O)C(c2ccc(OC)c(OC)c2)CN(C)C32C(=O)Nc3ccc(Cl)cc32)cc1OC` (stereo not drawn) [Compound 6o, (E)-5-Chloro-5″-(3,4-dimethoxybenzylidene)-4′-(3,4-dimethoxyphenyl)-1′-methyl-1″-(methylsulfonyl)dispiro[indoline-3,2′-pyrrolidine-3′,3″-piperidine]-2,4″-dione], the IC50 [2] is reported as 48.9 ± 1.84 µM, the “SI (selectivity index) MCF7” value [2] is reported as greater than 1.0 and the IC50 [3] is reported as 28.5 ± 0.75 µM. For the same molecule, the “SI (selectivity index) HCT116” value [3] was greater than 1.8, the IC50 [4, 9] was 45.4 ± 1.84 µM and the IC50 [4, 10] was 45.4 µM. For the same molecule, the “SI (selectivity index) A431” value [4] was greater than 1.1, the IC50 [5] was greater than 50 µM and the IC50 [6] was greater than 50 µM. The “EGFR % Inhibition” value (EGFR) was 65.9%, the “EGFR RQ (relative quantification)” value (EGFR) was 1.175 and the “VEGFR-2 % Inhibition” value (VEGFR-2) was 61.8%. The “VEGFR-2 RQ (relative quantification)” value (VEGFR-2) was 1.2473, the IC50 [7, 11] was 88.2 µM and the IC50 [7, 12] was 88.2 µM. The “SI = CC50/IC50” value [7] was 2.2, the CC50 at 24 h [8] was 196 µM and the “SI = IC50 (AChE)/IC50 (BChE)” value (AChE) was 1.1. The IC50 (AChE) was 27 ± 6.7 µM and the IC50 (BChE) was 24.9 ± 4.6 µM.
For `NC(=O)c1nc(F)c[nH]c1=O` [Favipiravir], the IC50 [1] is given as 1380 µM, the “SI = CC50/IC50” value [1] is given as 3.8 and the CC50 (VERO-E6 cells) is given as 5260 µM.
For `CCN(CCO)CCCC(C)Nc1ccnc2cc(Cl)ccc12` (stereo not drawn) [Hydroxychloroquine], the IC50 [1] is given as 36.9 µM, the “SI = CC50/IC50” value [1] is given as 9.7 and the CC50 (VERO-E6 cells) is given as 356 µM.

From publication PMC9380671, “Development of spiro-3-indolin-2-one containing compounds of antiproliferative and anti-SARS-CoV-2 properties” (Scientific Reports, 2022)
